Assays:
[1] = tested on: human-derived colorectal cancer cell line HCT116; experiment: Antitumor effects in mice model subcutaneously transplanted with human-derived cancer cell line; type: in vivo; conditions: oral, twice a day for 14 days, HCT116 nude mice
Method: The antitumor effects of the compound of the present invention were studied using nude mice subcutaneously transplanted with a human-derived colorectal cancer cell line HCT116, in which the Wnt signaling pathway was constantly activated.
HCT116 cells cultured in the same manner as in Test Example 2 were adjusted with D-PBS (NACALAI TESQUE, INC.) so as to have a cell concentration of 7.5×10^7/mL, and the cell suspension was ice cooled in a 15 mL tube. To the cell suspension, Matrigel (BD Biosciences Co.) was added in an amount of one-fourth of the cell suspension to prepare a preparation for cell transplantation. Into the back of BALB/c Slc-nu/nu mice (female, 8 weeks old, Japan SLC, Inc.), 0.1 mL of the preparation for cell transplantation was subcutaneously injected. […]
To the respective mice transplanted with cancer cells (nine in each group), forced oral administration of doses of the substance to be tested calculated from their body weights was performed twice a day (at intervals of six hours or more) for 14 days in total. Tumor volumes of the respective mice were calculated using the following formulas, and the antitumor effects were evaluated using a relative tumor volume ratio as an indicator.

AXIN2 protein expression = experiment: Expression level of Wnt/β-catenin target protein AXIN2 by western blotting in HCT116 cells; type: cell-based; conditions: Homo sapiens, 24 hours, read-out: Inhibition rate (%) AXIN2 protein
Method: Expression levels of target proteins of the Wnt/β-catenin signaling pathway was analyzed by western blotting method, and effects of the compound of the present invention on Wnt/β-catenin signaling activity were studied by using a change of these levels as an indicator. HCT116 cells cultured in the same manner as in Test Example 2 were diluted with the medium 1 so as to have a cell concentration of 5×10^5 cells/mL, and 5 mL of the diluted cells were seeded into T25 flasks, followed by culturing overnight in the 5% CO2 incubator. Next day, solutions of the compound to be tested obtained by diluting 10 and 3 mM DMSO stock solutions of the compound to be tested 100-fold with the medium 1 were added to each flask so that the amount of the solution in the flask was one tenth of the amount of the final solution (final concentrations of the compound to be tested: 10 and 3 μM). […] Supernatant was recovered by centrifugal operation (15,000 rpm, 10 min.) and amounts of proteins were determined. […] Thereafter, using a CCD camera (GE Healthcare Co., ImageQuant LAS 500), the respective bands were detected by chemiluminescence. The detected bands were quantified by densitometry (GE Healthcare Co., ImageQuant TL v8.1.0.0). Inhibition rates were calculated from the intensities of the bands in the respective groups, with the luminescence of the band of the DMSO added group being 100%. […]

O[C@H]1CC[C@@H](Oc2cccc3cnc(Nc4ccc5nc[nH]c5c4)nc23)CC1 [Example 1, cis-4-({2-[(1H-benzo[d]imidazol-6-yl)amino]quinazolyn-8-yl}oxy)cyclohexanol]
Tumor growth inhibition rate (TGI) on the last administration day ([1]; 40 mg/kg): 42%
Tumor growth inhibition rate (TGI) on the last administration day ([1]; 80 mg/kg): 70%
inhibition at 3 µM (AXIN2 protein expression; HCT-116, 3 μM): 46.1%
inhibition at 10 µM (AXIN2 protein expression; HCT-116, 10 μM): 66.9%

Source: patent US9682961B2, “Quinazoline derivative” (CARNA BIOSCIENCES, INC., priority 2013, dated 2017)
